The target of the assay is U. maydis IMPDH (Imp1) (Ustilago maydis, UniProt A0A0D1CRJ0, T408N). Description: Inhibition of U. maydis IMPDH (NADH fluorescence assay). Type of assay: biochemical. The settings on record: negative decimal logarithm of the molar IC50 for 50% inhibition of the enzyme; read-out: pI50 (converted). The protocol: The activity, or the decrease or increase in activity, can also preferably be determined by means of the conversion of the substrate NAD^+ into NADH, where the lower, or inhibited, activity of the polypeptide according to the invention is determined with reference to a less sharp increase in fluorescence emitted by the smaller amounts of NADH formed (see also FIG. 1). NADH fluoresces more than NAD^+.
To this end, the polypeptide according to the invention is incubated at a suitable concentration, which is preferably between 0.1 and 20 ng/μl, preferably between 0.13 and 10 ng/μl, of the enzyme, with NAD^+ at a concentration of from 5 to 400 μM, preferably 10 to 100 μM, and IMP at a concentration of from 5 to 400 μM, preferably from 50 to 300 μM, at a suitable temperature. The IMP concentration is preferably in each case twice as high as the concentration of the substrate NAD^+. It must be borne in mind that substrate inhibition can be observed for both substrates, viz. NAD^+ and IMP, and the used concentrations of the two substrates should therefore be checked in this respect. The temperature may be in a range of from 8 to 37° C. The measurement is preferably carried out at from 10 to 30° C., room temperature is also suitable in particular. The reaction is carried out in a usual buffer (“assay buffer”) which can contain preferably for example 20 to 200 mM KCl, 1 to 5 mM DTE or DTT, 0.01 to 1% BSA, 0.01 to 0.1% Tween 20 and 2 to 10% glycerol and brought to a pH of 8, for example using 25 to 100 mM Tris buffer (see Example 2). […]
The formation of NADH in the course of the reaction is then monitored with reference to the fluorescence at an excitation wavelength of 360 nm and an emission wavelength of 465 nm. The increase in fluorescence in the presence of a chemical compound can then be compared with the increase in fluorescence in the absence of a chemical compound. […] The period within which the increase in fluorescence is measured can be varied. A slow increase in fluorescence can be observed over the course of several hours, until, after 5 to 10 hours, a plateau is reached (see also FIG. 3). As a rule, the fluorescence decreases thereafter. […]
The measurement can also be carried out in formats conventionally used for HTS or UHTS assays, for example in microtitre plates, into which for example a total volume of 5 to 50 μl is introduced per reaction or per well and the individual components are present in one of the above-stated final concentrations. […] The mixture is then incubated for example for up to 2 or 3 hours at a suitable temperature, and the increase in fluorescence is measured at an excitation wavelength of 360 nm and an emission wavelength of 460 nm. […]
`CN1CCN(C)c2cc3nc4ccccc4nc3cc21` [Example 3]: the IC50 is 10 µM. As for `c1coc(-c2oc3nc4c(-c5ccco5)c(-c5ccco5)oc4nc3c2-c2ccco2)c1` [Example 4], the IC50 is 0.2 µM. Under `CCCCCCCCCCCCCCCCOc1ccc(CCCC(=O)O)cc1` [Example 1] stands 25.1 µM; under `COC1=Cc2ccccc2C(=O)C1=O` [Example 2], 12.6 µM.

Source of the values: patent US7270977B2, “Polypeptides for identifying fungicidally active compounds” (priority 2001, dated 2007).
